The values that follow come from ChEMBL document CHEMBL5338737, “Lysine-Specific Demethylase 1 Promises to Be a Novel Target in Cancer Drug Resistance: Therapeutic Implications” (J Med Chem, 2023).

Bounds are passed on as bounds.

Experiment [1] has as its target T1, Lysine-specific histone demethylase 1A (Homo sapiens, UniProt O60341). Nature of the experiment: Inhibition of recombinant LSD1 (unknown origin) incubated for 1 hr by fluorescence based analysis.
For experiment [2], the target named is T1, Lysine-specific histone demethylase 1A.
Description: Inhibition of LSD1 (unknown origin)

On to `COc1cc2c(c(O)c1OC)c(=O)c1ccccc1n2C` [ARBORININE], for which the IC50 in experiment [1] is 400 nM.
In experiment [2], `NC1CC1c1ccc(NC(=O)c2ccc(O)c3ncccc23)cc1` (stereo not drawn) yielded an IC50 below 1000 nM.
Take `C/C(=N\NC(=O)c1cccc(S(=O)(=O)N2CCN(C)CC2)c1)c1cc(Cl)ccc1O`: half-maximal inhibition in experiment [2] (IC50) required 127 nM.
